# Data published in ChEMBL document CHEMBL5532664, “Discovery, Optimization, and Evaluation of Potent and Selective DNA-PK Inhibitors in Combination with Chemotherapy or Radiotherapy for the Treatment of Malignancies” (J Med Chem, 2024).
# Calls of active or inactive are those of the source. The rule behind the calls is not given here.
# Experiments:
# [1] = in vivo; details: Sprague-Dawley, rat, po, 5 mg/kg
# [2] = test system: HCT-116; experiment: Inhibition of colony formation in human HCT-116 cells preincubated with compound for 1 hr followed by exposure to 2 Gy gamma irradiation and measured after 7 days by crystal violet staining based chemiluminescence assay; assay type: functional, cell-based; details: HCT-116, light or radiation study
# [3] = in vivo; details: Sprague-Dawley, rat, iv, 5 mg/kg
# [4] = rat, in vivo, po, 5 mg/kg, 24 h
# [5] = test system: A549; experiment: Antitumor activity against human A549 cells xenografted in BALB/c nude mouse assessed as tumor growth inhibition at 15 mg/kg, po administered once daily measured upto 26 days in presence of paclitaxel by vernier caliper analysis relative to control; assay type: functional; details: A549, 624 h, time <= 26 day, read-out: TGI
# [6] = test system: HCT-116; experiment: Inhibition of colony formation in human HCT-116 cells at […] preincubated with compound for 1 hr followed by exposure to 2 Gy gamma irradiation and measured after 7 days by crystal violet staining based chemiluminescence assay relative to control; assay type: functional; details: HCT-116, light or radiation study, dose 0.25 µM, time 169 hrs
# [7] = Toxicity in BALB/c nude mouse assessed as effect on body weight loss at 15 mg/kg, po measured upto 28 days […]; assay type: organism-based; details: in vivo, 672 h, time < 28 day
# [8] = in vivo; details: Sprague-Dawley, rat, iv, 5 mg/kg; remark: listed apart in the source
# [9] = test system: NCI-H460; experiment: Antitumor activity against human NCI-H460 cells xenografted in BALB/ c nude mouse assessed as inhibition of tumor growth at 100 mg/kg, po administered once daily with 2 Gy irradiation and measured upto 7 days by vernier caliper analysis; assay type: functional, organism-based; details: time <= 7.0 day
# [10] = in vivo; details: Sprague-Dawley, rat, po, 5 mg/kg; remark: listed apart in the source
# [11] = test system: HCT-116; experiment: Induction of cell cycle arrest in human HCT-116 cells assessed as accumulation of cells G0/G1 phase at 250 nM incubated for 1 hr followed by exposure to 2 Gy gamma irradiation and measured after 48 hrs propidium iodide staining based analysis (reference value: 60.01%); assay type: functional; details: time 49 hrs
# [12] = test system: HCT-116; experiment: Induction of cell cycle arrest in human HCT-116 cells assessed as accumulation of cells G0/G1 phase at 2000 nM (reference value: 66.45%); assay type: functional
# [13] = test system: HCT-116; experiment: Induction of cell cycle arrest in human HCT-116 cells assessed as accumulation of cells G2/M phase at 500 nM (reference value: […]%); assay type: functional
# [14] = test system: HCT-116; experiment: Induction of cell cycle arrest in human HCT-116 cells assessed as accumulation of cells S phase at 1000 nM (reference value: 19.72%); assay type: functional
# [15] = test system: HCT-116; experiment: Induction of cell cycle arrest in human HCT-116 cells assessed as accumulation of cells S phase at 2000 nM (reference value: 19.72%); assay type: functional
# [16] = test system: HCT-116; experiment: Induction of cell cycle arrest in human HCT-116 cells assessed as accumulation of cells G2/M phase at 2000 nM (reference value: […]%); assay type: functional
# [17] = test system: HCT-116; experiment: Induction of cell cycle arrest in human HCT-116 cells assessed as accumulation of cells G0/G1 phase at 500 nM incubated for 1 hr followed by exposure to 2 Gy gamma irradiation and measured after 48 hrs propidium iodide staining based analysis (reference value: 60.01%); assay type: functional; details: time 49 hrs
# [18] = test system: A549; experiment: Antitumor activity against human A549 cells xenografted in BALB/c nude mouse assessed as tumor growth inhibition at 7.5 mg/kg, po administered once daily measured upto 26 days in presence of paclitaxel by vernier caliper analysis relative to control; assay type: functional; details: A549, 624 h, time <= 26 day, read-out: TGI
# [19] = test system: HCT-116; experiment: Induction of cell cycle arrest in human HCT-116 cells assessed as accumulation of cells G2/M phase at 2000 nM incubated for 1 hr followed by exposure to 2 Gy gamma irradiation and measured after 48 hrs propidium iodide staining based analysis (reference value: 18.65%); assay type: functional; details: time 49 hrs
# [20] = test system: HCT-116; experiment: Induction of cell cycle arrest in human HCT-116 cells assessed as accumulation of cells G2/M phase at 500 nM incubated for 1 hr followed by exposure to 2 Gy gamma irradiation and measured after 48 hrs propidium iodide staining based analysis (reference value: 18.65%); assay type: functional; details: time 49 hrs
# [21] = test system: HCT-116; experiment: Induction of cell cycle arrest in human HCT-116 cells assessed as accumulation of cells S phase at 1000 nM incubated for 1 hr followed by exposure to 2 Gy gamma irradiation and measured after 48 hrs propidium iodide staining based analysis (reference value: 21.35%); assay type: functional; details: time 49 hrs
# [22] = test system: HCT-116; experiment: Induction of cell cycle arrest in human HCT-116 cells assessed as accumulation of cells G0/G1 phase at 250 nM (reference value: 66.45%); assay type: functional
# [23] = test system: HCT-116; experiment: Induction of cell cycle arrest in human HCT-116 cells assessed as accumulation of cells S phase at 250 nM incubated for 1 hr followed by exposure to 2 Gy gamma irradiation and measured after 48 hrs propidium iodide staining based analysis (reference value: 21.35%); assay type: functional; details: time 49 hrs
# [24] = test system: HCT-116; experiment: Induction of cell cycle arrest in human HCT-116 cells assessed as accumulation of cells G2/M phase at 1000 nM incubated for 1 hr followed by exposure to 2 Gy gamma irradiation and measured after 48 hrs propidium iodide staining based analysis (reference value: 18.65%); assay type: functional; details: time 49 hrs
# [25] = test system: HCT-116; experiment: Induction of cell cycle arrest in human HCT-116 cells assessed as accumulation of cells S phase at 500 nM (reference value: 19.72%); assay type: functional
# [26] = test system: BT-474; experiment: Antitumor activity against human BT-474 cells xenografted in BALB/c nude mouse assessed as inhibition of tumor growth at 0.25 to 12.5 mg/kg, po measured upto 10 days in presence of liposome doxorubicin by vernier caliper analysis; assay type: functional, organism-based; details: dose lower […], dose upper 12.5 mg/kg, time <= 10.0 day
# [27] = test system: HCT-116; experiment: Induction of cell cycle arrest in human HCT-116 cells assessed as accumulation of cells G0/G1 phase at 1000 nM incubated for 1 hr followed by exposure to 2 Gy gamma irradiation and measured after 48 hrs propidium iodide staining based analysis (reference value: 60.01%); assay type: functional; details: time 49 hrs
# [28] = test system: HCT-116; experiment: Inhibition of bleomycin-induced DNA-double stranded breaks in human HCT-116 cells assessed as reduction in gammaH2AX level pretreated for 1 hrs followed by bleomycin addition and measured after 6 hrs Western blot analysis; assay type: functional, cell-based; details: dose 0.03-30 µM, time 7.0 hrs
# [29] = test system: HCT-116; experiment: Induction of cell cycle arrest in human HCT-116 cells assessed as accumulation of cells G2/M phase at 250 nM (reference value: […]%); assay type: functional
# [30] = test system: HCT-116; experiment: Induction of cell cycle arrest in human HCT-116 cells assessed as accumulation of cells G2/M phase at 250 nM incubated for 1 hr followed by exposure to 2 Gy gamma irradiation and measured after 48 hrs propidium iodide staining based analysis (reference value: 18.65%); assay type: functional; details: time 49 hrs
# [31] = test system: HCT-116; experiment: Induction of cell cycle arrest in human HCT-116 cells assessed as accumulation of cells G0/G1 phase at 2000 nM incubated for 1 hr followed by exposure to 2 Gy gamma irradiation and measured after 48 hrs propidium iodide staining based analysis (reference value: 60.01%); assay type: functional; details: time 49 hrs
# [32] = test system: HCT-116; experiment: Induction of cell cycle arrest in human HCT-116 cells assessed as accumulation of cells S phase at 250 nM (reference value: 19.72%); assay type: functional
# [33] = test system: HCT-116; experiment: Induction of cell cycle arrest in human HCT-116 cells assessed as accumulation of cells G2/M phase at 1000 nM (reference value: […]%); assay type: functional
# [34] = test system: HCT-116; experiment: Induction of cell cycle arrest in human HCT-116 cells assessed as accumulation of cells G0/G1 phase at 1000 nM (reference value: 66.45%); assay type: functional
# [35] = test system: HCT-116; experiment: Induction of cell cycle arrest in human HCT-116 cells assessed as accumulation of cells G0/G1 phase at 500 nM (reference value: 66.45%); assay type: functional
# [36] = test system: HCT-116; experiment: Induction of cell cycle arrest in human HCT-116 cells assessed as accumulation of cells S phase at 2000 nM incubated for 1 hr followed by exposure to 2 Gy gamma irradiation and measured after 48 hrs propidium iodide staining based analysis (reference value: 21.35%); assay type: functional; details: time 49 hrs
# [37] = test system: HCT-116; experiment: Induction of cell cycle arrest in human HCT-116 cells assessed as accumulation of cells S phase at 500 nM incubated for 1 hr followed by exposure to 2 Gy gamma irradiation and measured after 48 hrs propidium iodide staining based analysis (reference value: 21.35%); assay type: functional; details: time 49 hrs
compound,measurement,setting,value
Cc1cc2ncnn2cc1Nc1ncc2c(n1)n(C1CCOCC1)c(=O)n2C [AZD-7648],bioavailability at 24 h,[1],78.1%
same,IC50,[2],38.1 nM
same,AUC(0-t) at 24 h,[3],3150 ng·h/mL
same,AUCt,[4],2458.98 ng·h/mL
same,inhibition in vivo at 15 mg/kg,[5],46.1%
same,inhibition at […],[6],98.2%
same,Activity,[7],Non-Toxic
same,Cmax at 24 h,[8],2620 ng/mL
same,Activity,[9],Active
same,Cmax at 24 h,[10],836 ng/mL
Cc1cc(-c2cnn(C)c2)ncc1Nc1ncc2c(n1)n(C1CCOCC1)c(=O)n2C,Activity,[11],53.41%
same,Activity,[12],60.62%
same,Activity,[13],15.5%
same,IC50,[2],33.3 nM
same,Activity,[14],21.75%
same,Activity,[15],22.92%
same,Activity,[16],16.46%
same,Activity,[17],45.35%
same,inhibition in vivo at 7.5 mg/kg,[18],78.8%
same,Activity,[19],69.21%
same,Activity,[20],30.99%
same,Activity,[21],13.82%
same,Activity,[22],65.15%
same,Activity,[23],22.74%
same,Activity,[24],53.54%
same,Activity,[25],23.44%
same,Activity,[26],Active
same,Activity,[27],32.64%
same,inhibition,[28],Dose-Dependent Effect
same,Activity,[29],15.81%
same,Activity,[30],21.65%
same,inhibition at […],[6],99.4%
same,Activity,[31],24.76%
same,Activity,[32],19.94%
same,Activity,[33],14.91%
same,Activity,[34],61.36%
same,Activity,[35],60.76%
same,Activity,[36],9.03%
same,Activity,[37],25.63%
same,Activity,[9],Active
